Measured values: patent publication US20150250166A1, “NOOTKATONE AS AN INSECTICIDE AND INSECT REPELLENT” (ALLYLIX, INC., priority 2012, published 2015)

System: adult cat fleas (Ctenocephalides felis)
Type: in vivo
Conditions: 10% nootkatone in isopropanol, direct spray; 24 hours
Protocol: A direct spray formulation, containing 10% nootkatone, 0.1% butylated hydroxytoluene (BHT) in isopropanol, stored at ambient temperature and humidity, was tested for efficacy for knockdown and mortality among adult cat fleas (Ctenocephalides felis). Five replicates of 10 adult cat fleas (El Labs Inc (Soquel, Calif.)) were emptied from 9 dram vials into 5 gallon HDPE Payliner® pail liners lined with paper towels. Each replicate was sprayed manually with 1 gram±0.1 grams of the 10% nootkatone formulation from the rim of the pail liner. The spray bottle was weighed before and after treating each replicate to confirm the weight of the test sample dispensed. Five control replicates of 10 adult cat fleas were treated with isopropyl alcohol, following the same protocol. The study provided a single treatment of 10% nootkatone formulation or isopropyl alcohol. All spraying took place in a vented, stainless steel Peet Grady chamber (6×6×6 ft).
Following the knockdown studies, the payliners containing cat fleas were kept at ambient temperature and humidity in the laboratory. Mortality of cat fleas following isopropanol (control) and 10% nootkatone treatments was then recorded 24 hours after solution administration. Dead fleas were confirmed by probing the fleas or exhaling into the payliner to ensure lack of movement. […] Cat fleas that were able to jump were recorded as being alive. The number of moribund and dead fleas per replicate were added together for a total mortality count and divided by the number of fleas tested to derive percent mortality.

SMILES: C=C(C)[C@@H]1CCC2=CC(=O)C[C@@H](C)[C@]2(C)C1 [nootkatone, 4,4a,5,6,7,8-hexahydro-6-isopropenyl-4,4a-dimethyl-2(3H)-naphtalenone]
- Alive, average cat flea count of 5 trials (of 10): 0
- Dead, average cat flea count of 5 trials (of 10): 9.6
- Moribund, average cat flea count of 5 trials (of 10): 0.4
- Mortality (moribund plus dead) of cat fleas: 100%
